From patent US20240182482A1, “FUSED CYCLIC COMPOUND AS WEE-1 INHIBITOR, PREPARATION METHOD THEREFOR AND USE THEREOF” (WIGEN BIOMEDICINE TECHNOLOGY (SHANGHAI) CO., LTD., priority 2021, published 2024) come the findings set out here.

The subject of experiment [1] is MIA PaCa-2 cells. Briefly: In-vitro anti-proliferative activity on MIA PaCa-2 cells (intracellular ATP content). As to conditions: compound alone, 72 h after dosing, read-out: IC50 Without GMC, anti-proliferative activity on MIA PaCa-2 cells. It is filed as cell-based. The method, then: Example 72. In-Vitro Anti-Proliferative Activity of the Compounds of the Present Invention on MIA PaCa-2 Cells
MIA PaCa-2 cells were seeded on a 384-well plate at 3000 cells/well. After overnight adherence culture, DMSO or the compounds serially diluted 1:5 from 5 μM were added. The viability was assessed 72 h after dosing by measuring the intracellular ATP content. The inhibition percentage of viable cells by the compounds was calculated by comparing with the DMSO group, and the IC50 value was calculated.

In the next experiment the target is Wee-1 kinase (Homo sapiens (Human), UniProt P30291). Kind of experiment: Inhibitory activity against Wee-1 kinase (ADP-GLO chemiluminescence). It is filed as biochemical. Particulars: 60 min reaction at room temperature. The method, then:
Example 71. Assay of Inhibitory Activity of Compounds of the Present Invention Against Wee-1 Kinase
After the serially diluted compound and an enzyme were mixed, the mixture was incubated at room temperature (25° C.) for 15 min, and then centrifuged at 1000 rpm for 1 min for mixing. 5 μL of substrate was added to start the reaction. After the mixture was reacted at room temperature for 60 min, 5 μL of ADP-GLO reagent was added and the mixture was centrifuged at 1000 rpm for 1 min for mixing. The mixture was subsequently incubated at room temperature for 60 min, and then 10 μL of kinase detection reagent was added. The mixture was incubated for 60 min, and the chemiluminescence was determined. The inhibition percentage of the enzyme activity by the compounds was calculated compared with the DMSO group, and the IC50 values were also calculated.
A general note: ADP-Glo turns the ADP formed in a reaction into a luminescent signal.

Experiment [2] relates to MIA PaCa-2 cells. Briefly: In-vitro anti-proliferative activity in combination with gemcitabine (GMC) on MIA PaCa-2 cells. The format is cell-based. Here is the method:
Example 73. In-Vitro Anti-Proliferative Activity of the Compounds of the Present Invention in Combination with Gemcitabine (GMC) on MIA PaCa-2 Cells
MIA PaCa-2 cells were seeded on a 384-well plate at 3000 cells/well, and 20 nM gemcitabine was added. After overnight adherence culture, DMSO or the compounds serially diluted 1:5 from 100 nM were added. The viability was assessed 72 h after dosing by measuring the intracellular ATP content. The inhibition percentage of viable cells by the compounds was calculated by comparing with the DMSO group, and the IC50 value was calculated.

Setting [3] is: Homo sapiens, MIA PaCa-2, 72 h, read-out: IC50 GMC (20 nM), anti-proliferative activity on MIA PaCa-2 cells, in combination with 20 nM gemcitabine, 72 h after dosing, ATP content.
Where [4] appears, read: read-out: IC50 GMC (20 nM), anti-proliferative activity on MIA PaCa-2 cells, in combination with 20 nM gemcitabine, 72 h after dosing, ATP content.

SMILES strings stand for the structures.

Chain of Wee-1 kinase (P30291 whole entry): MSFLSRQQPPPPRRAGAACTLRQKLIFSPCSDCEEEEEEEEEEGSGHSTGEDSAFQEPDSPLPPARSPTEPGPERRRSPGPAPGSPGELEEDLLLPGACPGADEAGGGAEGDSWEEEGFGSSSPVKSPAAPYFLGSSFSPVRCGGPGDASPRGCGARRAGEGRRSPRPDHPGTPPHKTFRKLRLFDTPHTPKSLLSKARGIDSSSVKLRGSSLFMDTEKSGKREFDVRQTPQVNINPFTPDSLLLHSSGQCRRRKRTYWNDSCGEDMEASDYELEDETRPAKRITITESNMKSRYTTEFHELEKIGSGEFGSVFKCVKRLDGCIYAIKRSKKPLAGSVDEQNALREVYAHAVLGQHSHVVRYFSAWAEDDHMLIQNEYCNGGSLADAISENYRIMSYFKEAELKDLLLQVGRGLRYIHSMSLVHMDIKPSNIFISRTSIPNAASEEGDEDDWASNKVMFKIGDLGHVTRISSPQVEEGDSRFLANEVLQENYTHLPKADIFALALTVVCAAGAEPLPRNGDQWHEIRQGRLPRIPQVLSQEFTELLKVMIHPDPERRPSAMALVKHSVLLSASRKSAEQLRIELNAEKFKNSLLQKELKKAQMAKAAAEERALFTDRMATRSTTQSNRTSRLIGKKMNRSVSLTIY

`CN1Cc2cc(Nc3ncc4c(F)cn(-c5cccc(P(C)(C)=O)n5)c4n3)cc3c2C(CCC3)C1` (stereo not drawn) [Compound 14]: the IC50 (in general, the concentration at which inhibition is half-maximal) in the experiment on MIA PaCa-2 cells [1] (Homo sapiens, MIA PaCa-2, 72 h) amounted to 331 nM; against Wee-1 kinase, 2.71 nM; in the experiment with MIA PaCa-2 cells [2] (setting [3]), 1.3 nM.
For `CN1Cc2cc(Nc3ncc4c(F)cn(-c5cccc(N=S(C)(C)=O)n5)c4n3)cc3c2[C@H](CCC3)C1` [Compound 66], the IC50 with MIA PaCa-2 cells [1] (Homo sapiens, MIA PaCa-2, 72 h) is 28 nM; against Wee-1 kinase, 1.19 nM; with MIA PaCa-2 cells [2] (setting [3]), under 1 nM; in the experiment with MIA PaCa-2 cells [2] (setting [4]), 0.9 nM.
For `[2H]C([2H])([2H])N1Cc2cc(Nc3ncc4c(F)cn(-c5ccc(F)c(N=S(C)(C)=O)n5)c4n3)cc3c2[C@H](CCC3)C1` [Compound 68], the IC50 is 76 nM with MIA PaCa-2 cells [1] (Homo sapiens, MIA PaCa-2, 72 h); 1.97 nM at Wee-1 kinase; under 1 nM with MIA PaCa-2 cells [2] (setting [3]); 0.9 nM with MIA PaCa-2 cells [2] (setting [4]).
In the case of `CN1Cc2cc(Nc3ncc4c(F)cn(-c5cccc(N=S(C)(C)=O)n5)c4n3)cc3c2C(CCC3)C1` (stereo not drawn) [Compound 1], the figures for the IC50 in the experiment on MIA PaCa-2 cells [1], against Wee-1 kinase and with MIA PaCa-2 cells [2] (setting [4]) were 37 nM, under 2 nM and 1.7 nM, respectively.
In the case of `[2H]C([2H])([2H])S(=O)(=Nc1nc(-n2cc(F)c3cnc(Nc4cc5c6c(c4)CN(C)C[C@H]6CCC5)nc32)ccc1F)C([2H])([2H])[2H]` [Compound 70], the IC50 in the experiment on MIA PaCa-2 cells [1] (Homo sapiens, MIA PaCa-2, 72 h) was determined as 89 nM; at Wee-1 kinase, 1.84 nM; with MIA PaCa-2 cells [2] (setting [3]) it was 1.1 nM.
As for `CN1Cc2cc(Nc3ncc4c(F)cn(-c5cccc(N=S6(=O)CCC6)n5)c4n3)cc3c2C(CCC3)C1` (stereo not drawn) [Compound 3], the IC50 in the experiment on MIA PaCa-2 cells [1] (Homo sapiens, MIA PaCa-2, 72 h) was determined as 128 nM; against Wee-1 kinase, 2.48 nM; in the experiment with MIA PaCa-2 cells [2] (setting [3]) it was 2.3 nM.
Consider `C=CCn1c(=O)c2cnc(Nc3ccc(N4CCN(C)CC4)cc3)nc2n1-c1cccc(C(C)(C)O)n1` [MK-1775, reference compound], for which the IC50 in the experiment with MIA PaCa-2 cells [1] (Homo sapiens, MIA PaCa-2, 72 h) was 904 nM; with MIA PaCa-2 cells [2] (setting [3]), 24.2 nM.
`CN1Cc2cc(Nc3ncc4c(F)cn(-c5cccc(N=S6(=O)CCCC6)n5)c4n3)cc3c2C(CCC3)C1` (stereo not drawn) [Compound 4]: the IC50 is 115 nM with MIA PaCa-2 cells [1] (Homo sapiens, MIA PaCa-2, 72 h); 2.47 nM on Wee-1 kinase; 2.1 nM with MIA PaCa-2 cells [2] (setting [3]).
As to `[2H]C([2H])([2H])S(=O)(=Nc1cccc(-n2cc(F)c3cnc(Nc4cc5c6c(c4)CN(C)C[C@H]6CCC5)nc32)n1)C([2H])([2H])[2H]` [Compound 69], the IC50 at Wee-1 kinase was determined as 1.54 nM.
Take `CCS(=O)(CC)=Nc1cccc(-n2cc(F)c3cnc(Nc4cc5c6c(c4)CN(C)CC6CCC5)nc32)n1` (stereo not drawn) [Compound 2]: the IC50 in the experiment with MIA PaCa-2 cells [1] (Homo sapiens, MIA PaCa-2, 72 h) was 106 nM; against Wee-1 kinase, 1.96 nM; in the experiment with MIA PaCa-2 cells [2] (setting [3]) it was 2.4 nM.
With `[2H]C([2H])([2H])N1Cc2cc(Nc3ncc4c(F)cn(-c5cccc(N=S(C)(C)=O)n5)c4n3)cc3c2[C@H](CCC3)C1` [Compound 67], the IC50 is 49 nM in the experiment with MIA PaCa-2 cells [1] (Homo sapiens, MIA PaCa-2, 72 h); 1.86 nM at Wee-1 kinase; under 1 nM in the experiment with MIA PaCa-2 cells [2] (setting [3]); 0.8 nM with MIA PaCa-2 cells [2] (setting [4]).
For the compound `[2H]C([2H])([2H])S(=O)(=Nc1cccc(-n2cc(F)c3cnc(Nc4cc5c6c(c4)CN(C)CC6CCC5)nc32)n1)C([2H])([2H])[2H]` (stereo not drawn) [Compound 21], the IC50 was determined as 85 nM in the experiment on MIA PaCa-2 cells [1] (Homo sapiens, MIA PaCa-2, 72 h); 1.67 nM against Wee-1 kinase; 1.7 nM in the experiment with MIA PaCa-2 cells [2] (setting [3]).
In the same order, the values of `CCN1Cc2cc(Nc3ncc4c(C)cn(-c5cccc(N=S(C)(C)=O)n5)c4n3)cc3c2C(CCC3)C1` (stereo not drawn) [Compound 28] are 172 nM, 2.33 nM and 1.3 nM.
In the case of `CN1Cc2cc(Nc3ncc4c(F)cn(-c5ccc(Cl)c(N=S(C)(C)=O)n5)c4n3)cc3c2C(CCC3)C1` (stereo not drawn) [Compound 24], the IC50 was 184 nM in the experiment on MIA PaCa-2 cells [1] (Homo sapiens, MIA PaCa-2, 72 h); 2.49 nM at Wee-1 kinase; 1.6 nM in the experiment with MIA PaCa-2 cells [2] (setting [3]).
With `CN1Cc2cc(Nc3ncc4c(F)cn(-c5ccc(F)c(N=S(C)(C)=O)n5)c4n3)cc3c2C(CCC3)C1` (stereo not drawn) [Compound 64], the IC50 in the experiment with MIA PaCa-2 cells [1] was found to be 179 nM; on Wee-1 kinase, 3.36 nM; with MIA PaCa-2 cells [2] (setting [4]) it was 2.5 nM.
Turning to `CN1Cc2cc(Nc3ncc4c(F)cn(-c5ccc(F)c(N=S(C)(C)=O)n5)c4n3)cc3c2[C@H](CCC3)C1` [Compound 65], the IC50 in the experiment on MIA PaCa-2 cells [1] (Homo sapiens, MIA PaCa-2, 72 h) was found to be 78 nM; against Wee-1 kinase it was 1.56 nM; in the experiment with MIA PaCa-2 cells [2] (setting [3]), 1.4 nM.
As to `CN1Cc2cc(Nc3ncc4c(F)cn(-c5ccc(F)c(N=S(C)(C)=O)n5)c4n3)cc3c2C(CCC3)C1` (stereo not drawn) [Compound 23], the IC50 amounted to 155 nM in the experiment with MIA PaCa-2 cells [1] (Homo sapiens, MIA PaCa-2, 72 h); 2.05 nM on Wee-1 kinase; 1.2 nM in the experiment with MIA PaCa-2 cells [2] (setting [4]).
For the compound `CN1Cc2cc(Nc3ncc4c(F)cn(-c5cccc(N=S(C)(C)=O)n5)c4n3)cc3c2C(CCC3)C1` (stereo not drawn) [Compound 63], the figures for the IC50 with MIA PaCa-2 cells [1], against Wee-1 kinase and in the experiment on MIA PaCa-2 cells [2] (setting [3]) were 173 nM, 3.47 nM and 2.3 nM, respectively.
Take `CN1Cc2cc(Nc3ncc4c(F)cn(-c5cccc(N=S6(=O)CCOCC6)n5)c4n3)cc3c2C(CCC3)C1` (stereo not drawn) [Compound 5]: the IC50 in the experiment with MIA PaCa-2 cells [1] was 139 nM; against Wee-1 kinase, 2.79 nM; in the experiment with MIA PaCa-2 cells [2] (setting [4]), 2.4 nM.
